The results in this text go back to article PMC7508162 (Frontiers in Pharmacology, 2020).

For one data set, the target named is T1, human CD73 (Homo sapiens, UniProt P21589).
T1 construct: the catalytic domains of the enzymes were amplified and sub-cloned into the expression vector pACGP67 A/B; 9xHis (C); made in house; host or cells: Sf9 insect cells (baculovirus, pACGP67 A/B)
T1 sequence (P21589 27-549 limits assumed): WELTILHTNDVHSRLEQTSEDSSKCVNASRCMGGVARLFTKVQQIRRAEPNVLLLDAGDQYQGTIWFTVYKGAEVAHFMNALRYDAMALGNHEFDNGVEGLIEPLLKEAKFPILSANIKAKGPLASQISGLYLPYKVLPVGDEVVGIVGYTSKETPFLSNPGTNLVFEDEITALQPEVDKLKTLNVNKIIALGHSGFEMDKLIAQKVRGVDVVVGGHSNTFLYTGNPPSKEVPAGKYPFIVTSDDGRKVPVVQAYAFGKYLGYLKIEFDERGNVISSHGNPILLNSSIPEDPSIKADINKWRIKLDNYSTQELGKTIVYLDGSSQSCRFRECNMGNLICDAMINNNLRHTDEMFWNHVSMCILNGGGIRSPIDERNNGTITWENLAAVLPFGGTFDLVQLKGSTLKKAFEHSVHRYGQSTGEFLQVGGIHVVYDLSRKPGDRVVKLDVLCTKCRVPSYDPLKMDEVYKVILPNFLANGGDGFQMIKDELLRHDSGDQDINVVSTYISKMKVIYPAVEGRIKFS
Nature of the data set: CD73 assay with [2,8-3H]AMP as radioactive substrate. Format: biochemical. The note with it: for Ki: soluble human CD73, 5.0 µM [2,8-3H]AMP, read-out: Ki ± SEM. From the text: (§1) The cDNAs of the human enzymes NPP1, NPP3, NPP5, CD38 and CD73 (Genbank accession no. NM_006258, NM_005021, NM_021572, NM_ 001775, and NM_002526, respectively) were obtained from Origene (Rockville, USA). Soluble enzymes were produced as previously reported with some modifications ([Lee et al., 2015]; [Junker et al., 2019]). Briefly, the catalytic domains of the enzymes were amplified and sub-cloned into the expression vector pACGP67 A/B modified with the addition of 9 x histidine tag (His-tag) at the C-terminus (except for NPP1). The plasmids were transfected in Sf9 insect cells using Cellfectin™ II Reagent (Thermo Fisher Scientific, MA, USA) and ProEasy™ baculovirus linearized DNA (Cat.#A10S, AB Vector, LLC). Protein expression was conducted for 48 h at 27°C. The signal peptide sequence of the expression vector shuttled the proteins into the supernatant. The supernatant medium was collected, and the enzymes were purified using HisPur™ Ni^2+-NTA spin columns according to the manufacturer’s protocol. The protein concentration was determined by the method previously described by [Lowry et al. (1951)].
The assay was performed as previously described ([Freundlieb et al., 2014]). Briefly, it contained with 0.09 µg/ml of soluble human CD73 recombinantly expressed in Sf9 insect cells as described ([Junker et al., 2019]), the respective test compound, and 5.0 µM [2,8-^3H]AMP (specific activity 7.4 x 108 Bq/mmol, 20 mCi/mmol) as radioactive substrate in assay buffer consisting of 25 mM Tris buffer, 140 mM NaCl, 25 mM NaH2PO4 pH 7.4. The enzymatic reaction was performed for 25 min at 37°C in a shaking water bath. Then, 500 µl of cold precipitation buffer (100 mM LaCl3, 100 mM sodium acetate, pH 4.0) were added to precipitate free phosphate and unconverted [2,8-^3H]AMP. After 30 min on ice, filtration through GF/B glass fiber filters using a cell harvester was used to separate AMP from adenosine. After washing each reaction vial three times with 400 µl of cold (4°C) demineralized water, aliquots of the filtrate were taken, and 5 ml of scintillation cocktail (ULTIMA Gold XR9) was added. The amount of formed adenosine was quantified by liquid scintillation counting (TRICARB 2900 TR, Packard/PerkinElmer).

The next data set concerns the target T2, human NPP5 (Homo sapiens, UniProt Q9UJA9).
T2 construct: the catalytic domains of the enzymes were amplified and sub-cloned into the expression vector pACGP67 A/B; 9xHis (C); made in house; host or cells: Sf9 insect cells (baculovirus, pACGP67 A/B)
T2 sequence (Q9UJA9 25-431 limits assumed): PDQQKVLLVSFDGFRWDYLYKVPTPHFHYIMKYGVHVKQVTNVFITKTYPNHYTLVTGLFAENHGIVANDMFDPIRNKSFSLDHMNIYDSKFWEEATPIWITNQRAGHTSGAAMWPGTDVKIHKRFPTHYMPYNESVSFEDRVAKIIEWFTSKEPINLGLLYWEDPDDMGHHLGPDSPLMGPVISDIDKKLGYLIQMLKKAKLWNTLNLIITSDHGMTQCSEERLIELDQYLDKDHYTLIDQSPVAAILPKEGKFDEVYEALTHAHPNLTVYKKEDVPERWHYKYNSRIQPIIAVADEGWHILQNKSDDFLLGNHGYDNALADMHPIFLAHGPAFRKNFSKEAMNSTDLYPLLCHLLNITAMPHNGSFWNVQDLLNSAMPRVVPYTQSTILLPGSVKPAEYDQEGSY
Briefly: NPP5 assay with ϵ-NAD+ as substrate. The data set is classed as biochemical. The note with it: for inhibition at 10 µM: 10 µM test compound; for Ki: 20 µM ϵ-NAD+, read-out: Ki ± SEM.
Description: as §1
The assays were performed in analogy to published procedures ([Blacher et al., 2015]). The enzymatic activity of human NPP3 and NPP5 (soluble forms expressed in insect cells and purified as previously described ([Lee et al., 2015]; [Lopez et al., 2020]) was measured using 1,N^6-etheno-nicotinamide adenine dinucleotide (ϵ-NAD^+) as a substrate, which is hydrolyzed to fluorescent 1,N^6-etheno-AMP (ϵ-AMP). The enzymatic reactions were performed in reaction buffer [10 mM N-cyclohexyl-2-aminoethanesulfonic acid (CHES), 2 mM CaCl2, and 1 mM MgCl2, pH 9.0 in H2O]. Purified NPP3 (90 ng) or NPP5 (400 ng), 20 µM of ϵ-NAD^+ and 10 µM of the test compound were incubated for 30 min at 37°C. The relative fluorescence at 270 nm excitation and 420 nm emission was detected by a fluorescence microplate reader (Flexstation, Medical Devices LLC. USA, Softmax Pro software to collect the data).

Data set [1] in a line: Metabolic stability in human liver microsomes. The data set is classed as in vitro ADME. The note with it: both sexes; human liver microsomes 0.5 mg/mL; compound 1 μM. Here is the method: The experiments were performed by Pharmacelsus, Saarbrücken, Germany (https://www.pharmacelsus.com/services/in-vitro-adme/) using human and mouse liver microsomes (0.5 mg/mL, mixed gender, pooled). Compounds were tested at a concentration of 1 μM. Data points represent means of two separate experiments performed in duplicates.
(In general: Microsomes from liver hold many membrane-bound enzymes, among them those of drug oxidation.)

By Ki is commonly meant a measure of affinity in units of concentration, obtained from inhibition or displacement. As a reminder, the inhibition is the relative decrease from the control value, in per cent. The term half-life denotes how long it takes for the measured level to halve. Lower therefore signals fast loss. On to `CCN(CC)c1ncnc2c1ncn2[C@@H]1O[C@H](COP(=O)(O)OP(=O)(O)C(Br)(Br)P(=O)(O)O)[C@@H](O)[C@H]1O` [ARL67156, (Dibromo((((((2R,3S,4R,5R)-5-(6-(diethylamino)-9H-purin-9-yl)-3,4-dihydroxytetrahydrofuran-2-yl)methoxy)-(hydroxy)-phosphoryl)oxy)(hydroxy)phosphoryl)methyl)-phosphonic Acid, reference compound], for which, at human CD73, the inhibitory constant (Ki) was determined as 0.451 ± 0.121 µM. Besides, on human NPP5, the inhibition at 10 µM was -3% and the Ki is more than 10 µM. The half-life at 1 μM in data set [1] was less than 1 min.
On the same counts, the results for `CCCCSc1nc2c(N)ncnc2n1[C@@H]1O[C@H](COP(=O)(O)OP(=O)(O)C(Br)(Br)P(=O)(O)O)[C@@H](O)[C@H]1O` [Compound 31, (((((((2R,3S,4R,5R)-5-(6-Amino-8-(butylthio)-9H-purin-9-yl)-3,4-dihydroxytetrahydrofuran-2-yl)methoxy)(hydroxy)-phosphoryl)oxy)(hydroxy)phosphoryl)dibromomethyl)-phosphonic Acid] are 0.831 ± 0.274 µM, 2%, more than 10 µM and less than 1 min.
In the case of `CCCCNc1nc2c(NC)ncnc2n1[C@@H]1O[C@H](COP(=O)(O)OP(=O)(O)C(Br)(Br)P(=O)(O)O)[C@@H](O)[C@H]1O` [Compound 33, (Dibromo((((((2R,3S,4R,5R)-5-(8-(butylamino)-6-(methylamino)-9H-purin-9-yl)-3,4-dihydroxy-tetrahydrofuran-2-yl)methoxy)(hydroxy)phosphoryl)oxy)-(hydroxy)phosphoryl)methyl)-phosphonic Acid], the “fold higher potency at CD73 compared to CD39” value at human CD73 (CD73 Ki vs CD39 Ki) was determined as 8 fold. In addition, at human CD73, the inhibition constant Ki turned out to be 0.185 ± 0.074 µM. Besides, at human NPP5, the inhibition at 10 µM stood at 1% and the Ki is more than 10 µM. For the same molecule, in data set [1], the half-life at 1 μM was less than 1 min.
